Test results published in US9187471B2, “Pyrido [4,3-b] indole and pyrido [3,4-b] indole derivatives and methods of use” (Medivation Technologies, Inc., priority 2010, dated 2015).

Key:
[1] = target: T1, human recombinant serotonin (5-Hydroxytryptamine) 5-HT6 receptor (Homo sapiens, UniProt P50406); assay: Serotonin 5-HT6 radioligand binding ([3H]LSD); details: compound at 0.1 μM; read-out: Inhibition of ligand binding, Serotonin 5-HT6 (percent inhibition of specific binding)
T1 construct: expressed in transfected cells; host or cells: HeLa
T1 sequence (P50406 whole entry): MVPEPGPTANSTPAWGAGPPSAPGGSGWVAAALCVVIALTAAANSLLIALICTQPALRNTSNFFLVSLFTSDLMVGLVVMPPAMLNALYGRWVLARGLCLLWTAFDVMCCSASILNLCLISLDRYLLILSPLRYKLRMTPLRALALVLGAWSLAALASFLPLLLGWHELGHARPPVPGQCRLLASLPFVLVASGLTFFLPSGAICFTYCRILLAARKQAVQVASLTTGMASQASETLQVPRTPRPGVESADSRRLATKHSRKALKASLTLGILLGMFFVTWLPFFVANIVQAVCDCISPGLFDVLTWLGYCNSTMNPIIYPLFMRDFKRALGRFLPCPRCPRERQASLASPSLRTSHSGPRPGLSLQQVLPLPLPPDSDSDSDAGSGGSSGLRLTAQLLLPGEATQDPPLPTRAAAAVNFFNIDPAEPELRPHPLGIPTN
From the text: Receptor proteins were filtered and washed, the filters were then counted to determine [3H]LSD specifically bound.

[2] = target: T2, human recombinant dopamine D2L receptor (Homo sapiens, UniProt P14416); assay: Dopamine D2L radioligand binding ([3H]Spiperone); details: read-out: Dopamine D2L (1 μM), percent inhibition of specific binding; compound at 1 μM; 0.16 nM [3H]Spiperone
T2 construct: expressed in transfected cells; host or cells: CHO
T2 sequence (P14416 whole entry): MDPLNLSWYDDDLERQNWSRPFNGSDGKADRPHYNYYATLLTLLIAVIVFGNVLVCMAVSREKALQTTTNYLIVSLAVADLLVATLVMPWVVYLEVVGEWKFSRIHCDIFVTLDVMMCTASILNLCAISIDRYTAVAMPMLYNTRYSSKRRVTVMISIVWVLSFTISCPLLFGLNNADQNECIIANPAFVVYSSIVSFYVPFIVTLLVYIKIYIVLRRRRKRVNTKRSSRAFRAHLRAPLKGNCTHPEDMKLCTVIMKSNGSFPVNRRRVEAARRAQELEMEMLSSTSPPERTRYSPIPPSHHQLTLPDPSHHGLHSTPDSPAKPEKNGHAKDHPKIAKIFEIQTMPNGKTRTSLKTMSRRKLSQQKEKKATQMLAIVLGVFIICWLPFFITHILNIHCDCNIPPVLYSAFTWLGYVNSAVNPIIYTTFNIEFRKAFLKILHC
Description: Non-specific binding was estimated in the presence of 10 μM Haloperidol. Receptor proteins were filtered and washed, the filters were then counted to determine [^3H]Spiperone specifically bound.

[3] = target: T3, human recombinant serotonin (5-Hydroxytryptamine) 5-HT2C receptor (Homo sapiens, UniProt P28335); assay: Serotonin 5-HT2C radioligand binding ([3H]Mesulergine); details: compound at 0.1 μM; read-out: Inhibition of ligand binding, Serotonin 5-HT2C (percent inhibition of specific binding)
T3 construct: expressed in transfected cells; host or cells: CHO-K1
T3 sequence (P28335 33-458): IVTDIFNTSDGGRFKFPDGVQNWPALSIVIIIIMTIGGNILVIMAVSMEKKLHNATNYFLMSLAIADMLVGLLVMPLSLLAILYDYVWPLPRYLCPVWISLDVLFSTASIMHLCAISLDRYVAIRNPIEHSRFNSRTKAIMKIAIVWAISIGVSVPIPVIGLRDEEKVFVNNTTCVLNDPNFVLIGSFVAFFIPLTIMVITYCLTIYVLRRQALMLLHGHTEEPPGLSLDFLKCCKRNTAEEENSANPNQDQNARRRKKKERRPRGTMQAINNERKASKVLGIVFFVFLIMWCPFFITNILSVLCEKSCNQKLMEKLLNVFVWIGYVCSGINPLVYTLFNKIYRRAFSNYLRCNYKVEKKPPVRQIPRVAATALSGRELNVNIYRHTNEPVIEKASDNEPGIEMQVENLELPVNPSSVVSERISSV
Description: Compounds of the invention were incubated with 1 nM [^3H]Mesulergine for 60 min at 25° C. Non-specific binding was estimated in the presence of 1 μM Mianserin. Receptor proteins were filtered and washed, the filters were then counted to determine [^3H]Mesulergine specifically bound.

[4] = target: T4, rat adrenergic α1A receptor (Rattus norvegicus, UniProt P43140); assay: Adrenergic α1A radioligand binding ([3H]Prazosin); details: read-out: Adrenergic (0.1 μM) a1A, percent inhibition of specific binding; compound at 0.1 μM; 0.25 nM [3H]Prazosin
T4 construct: rat adrenergic α1A receptor obtained from Wistar Rat submaxillary glands; from tissue; host or cells: Wistar rat submaxillary glands
T4 sequence (P43140 1-466): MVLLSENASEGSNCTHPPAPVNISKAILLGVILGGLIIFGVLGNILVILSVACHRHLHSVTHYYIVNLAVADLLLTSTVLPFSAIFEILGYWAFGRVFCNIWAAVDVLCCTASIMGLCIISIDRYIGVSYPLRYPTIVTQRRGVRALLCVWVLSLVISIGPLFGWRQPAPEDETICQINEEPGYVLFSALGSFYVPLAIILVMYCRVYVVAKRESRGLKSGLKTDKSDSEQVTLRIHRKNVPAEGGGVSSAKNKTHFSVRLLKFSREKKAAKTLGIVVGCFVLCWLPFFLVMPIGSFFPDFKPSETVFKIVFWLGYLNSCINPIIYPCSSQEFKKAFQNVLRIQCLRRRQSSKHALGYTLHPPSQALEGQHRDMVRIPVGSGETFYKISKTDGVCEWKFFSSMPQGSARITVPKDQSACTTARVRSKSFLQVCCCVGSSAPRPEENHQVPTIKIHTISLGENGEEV
Description: To evaluate in radioligand binding assays the activity of compounds of the invention, rat adrenergic α1A receptor obtained from Wistar Rat submaxillary glands (Michel, A. et al, Br. J. Pharmacol. 98:883, 1989) in a modified Tris-HCl buffer (50 mM Tris-HCl buffer, pH 7.4, 0.5 mM EDTA) was used. Compounds of the invention were incubated with 0.25 nM [^3H]Prazosin for 60 min at 25° C. Non-specific binding was estimated in the presence of 10 μM phentolamine Receptor proteins were filtered and washed, the filters were then counted to determine [^3H]Prazosin specifically bound. […] Compounds of the invention were tested in this biochemical assay and percent inhibition of specific binding was determined.

[5] = target: T5, human recombinant serotonin (5-Hydroxytryptamine) 5-HT2A receptor (Homo sapiens, UniProt P28223); assay: Serotonin 5-HT2A radioligand binding ([3H]Ketanserin); details: compound at 0.1 μM; read-out: Inhibition of ligand binding, Serotonin 5-HT2A (percent inhibition of specific binding)
T5 construct: expressed in transfected cells; host or cells: CHO-K1
T5 sequence (P28223 whole entry): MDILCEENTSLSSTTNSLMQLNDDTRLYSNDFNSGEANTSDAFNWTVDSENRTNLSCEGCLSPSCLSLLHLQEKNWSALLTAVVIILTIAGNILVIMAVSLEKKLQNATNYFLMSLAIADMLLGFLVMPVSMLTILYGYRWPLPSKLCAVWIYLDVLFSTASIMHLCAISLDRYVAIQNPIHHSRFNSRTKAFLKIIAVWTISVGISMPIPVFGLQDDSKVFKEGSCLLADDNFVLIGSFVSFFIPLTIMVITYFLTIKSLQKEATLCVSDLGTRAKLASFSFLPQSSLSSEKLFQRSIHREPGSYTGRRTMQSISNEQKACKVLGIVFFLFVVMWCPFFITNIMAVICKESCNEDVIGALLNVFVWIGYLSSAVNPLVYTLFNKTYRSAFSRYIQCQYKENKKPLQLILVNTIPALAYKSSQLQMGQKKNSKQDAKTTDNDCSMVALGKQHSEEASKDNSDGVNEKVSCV
Description: Compounds of the invention were incubated with 0.5 nM [^3H]Ketanserin for 60 min at 25° C. Non-specific binding was estimated in the presence of 1 μM Mianserin. Receptor proteins were filtered and washed, the filters were then counted to determine [^3H]Ketanserin specifically bound.

[6] = target: T6, human recombinant serotonin (5-Hydroxytryptamine) 5-HT7 receptor (Homo sapiens, UniProt P34969); assay: Serotonin 5-HT7 radioligand binding ([3H]LSD); details: compound at 0.1 μM; read-out: Inhibition of ligand binding, Serotonin 5-HT7 (percent inhibition of specific binding)
T6 construct: expressed in transfected cells; host or cells: CHO
T6 sequence (P34969 whole entry): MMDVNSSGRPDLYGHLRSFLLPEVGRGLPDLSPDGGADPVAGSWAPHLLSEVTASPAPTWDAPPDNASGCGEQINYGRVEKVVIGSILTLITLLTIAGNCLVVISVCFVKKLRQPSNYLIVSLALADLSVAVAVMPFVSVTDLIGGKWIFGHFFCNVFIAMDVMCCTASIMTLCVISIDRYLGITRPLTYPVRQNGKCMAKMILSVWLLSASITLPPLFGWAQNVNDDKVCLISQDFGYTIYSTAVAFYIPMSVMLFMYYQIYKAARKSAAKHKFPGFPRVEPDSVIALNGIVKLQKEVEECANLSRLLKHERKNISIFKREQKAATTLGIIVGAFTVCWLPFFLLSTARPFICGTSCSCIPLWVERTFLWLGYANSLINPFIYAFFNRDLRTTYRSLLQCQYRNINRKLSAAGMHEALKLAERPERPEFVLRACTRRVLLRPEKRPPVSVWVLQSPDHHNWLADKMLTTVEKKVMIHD
Description: Lysergic acid diethylamide (LSD) for 120 min. at 25° C. […] Receptor proteins were filtered and washed, the filters were then counted to determine [^3H]LSD specifically bound.

[7] = target: T7, human recombinant adrenergic α2C receptor (Homo sapiens, UniProt P18825); assay: Adrenergic α2C radioligand binding ([3H]MK-912); details: read-out: Adrenergic (0.1 μM) a2C, percent inhibition of specific binding; compound at 0.1 μM; 1 nM [3H]MK-912
T7 construct: expressed in transfected cells; host or cells: insect Sf9 cells
T7 sequence (P18825 1-462): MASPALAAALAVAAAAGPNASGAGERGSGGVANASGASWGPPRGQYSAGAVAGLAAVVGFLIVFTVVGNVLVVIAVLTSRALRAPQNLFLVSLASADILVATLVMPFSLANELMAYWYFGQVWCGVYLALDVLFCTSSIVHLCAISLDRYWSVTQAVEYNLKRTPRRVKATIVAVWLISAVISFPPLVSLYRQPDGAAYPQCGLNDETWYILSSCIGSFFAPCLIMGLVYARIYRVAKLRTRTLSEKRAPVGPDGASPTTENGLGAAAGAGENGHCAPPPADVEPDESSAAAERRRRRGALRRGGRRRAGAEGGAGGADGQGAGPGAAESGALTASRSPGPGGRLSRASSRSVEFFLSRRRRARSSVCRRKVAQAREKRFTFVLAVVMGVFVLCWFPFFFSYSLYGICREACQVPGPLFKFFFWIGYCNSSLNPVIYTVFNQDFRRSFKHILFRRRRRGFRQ
Description: To evaluate in radioligand binding assays the activity of compounds of the invention, human recombinant adrenergic α2C receptor expressed in insect Sf9 cells (Uhlen, S. et al, J. Pharmacol. Exp. Ther. 271:1558, 1994) in a modified Tris-HCl buffer (50 mM Tris-HCl, pH 7.4, 12.5 mM MgCl2, 2 mM EDTA) was used. Compounds of the invention were incubated with 1 nM [^3H]MK-912 for 60 min at 25° C. Non-specific binding was estimated in the presence of 10 μM WB-4101. Receptor proteins were filtered and washed, the filters were then counted to determine [^3H]MK-912 specifically bound. […] Compounds of the invention were tested in this biochemical assay and percent inhibition of specific binding was determined.

[8] = target: T8, human recombinant histamine H1 receptor (Homo sapiens, UniProt P35367); assay: Histamine H1 radioligand binding ([3H]Pyrilamine); details: read-out: Histamine H1 Binding (1 μM), percent inhibition of specific binding; compound at 1 μM; 1.2 nM [3H]Pyrilamine
T8 construct: expressed in transfected cells; host or cells: CHO-K1
T8 sequence (P35367 whole entry): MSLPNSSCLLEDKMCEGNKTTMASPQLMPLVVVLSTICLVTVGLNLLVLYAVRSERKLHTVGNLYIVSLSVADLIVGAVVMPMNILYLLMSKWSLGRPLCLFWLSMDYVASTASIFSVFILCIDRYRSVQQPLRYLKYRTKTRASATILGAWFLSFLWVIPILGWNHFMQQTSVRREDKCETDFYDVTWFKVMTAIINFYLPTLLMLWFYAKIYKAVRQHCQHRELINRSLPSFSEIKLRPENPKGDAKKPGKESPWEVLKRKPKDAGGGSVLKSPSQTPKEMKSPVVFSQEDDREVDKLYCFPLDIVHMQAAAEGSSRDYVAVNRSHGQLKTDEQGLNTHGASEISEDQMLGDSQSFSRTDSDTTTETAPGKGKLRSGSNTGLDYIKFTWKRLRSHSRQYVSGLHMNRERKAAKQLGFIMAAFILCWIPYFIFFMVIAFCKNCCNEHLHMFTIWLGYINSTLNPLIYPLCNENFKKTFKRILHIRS
Description: To evaluate in radioligand binding assays the activity of compounds of the invention, human recombinant histamine H1 receptor expressed in Chinese hamster ovary (CHO) K1 cells (De Backer, M. et al, Biochem. Biophys. Res. Comm. 197(3):1601, 1993) in a modified Tris-HCl buffer (50 mM Tris-HCl, pH 7.4, 2 mM MgCl2, 100 mM NaCl, 250 mM Sucrose) was used. […] Non-specific binding was estimated in the presence of 1 μM Pyrilamine. Receptor proteins were filtered and washed, the filters were then counted to determine [^3H]Pyrilamine specifically bound. […] Biochemical assay results are presented as the percent inhibition of specific binding in Table 2.

Compound | inhibition at 0.1 µM [1] | inhibition at 1 µM [2] | inhibition at 0.1 µM [3] | inhibition at 0.1 µM [4] | inhibition at 0.1 µM [5] | inhibition at 0.1 µM [6] | inhibition at 0.1 µM [7] | inhibition at 1 µM [8]
Cc1ccc2c(c1)c1c(n2-c2ccoc2)CCN(C)C1 [Compound 15, 5-furan-3-yl-2,8-dimethyl-2,3,4,5-tetrahydro-1H-pyrido[4,3-b]indole] | 51% | 19% | 77% | 28% | 72% | 57% | 7% | 80%
Cc1ccc2c(c1)c1c(n2-c2ccccc2-c2ccncc2)CCN(C)C1 [Compound 5, 2,8-dimethyl-5-(2-pyridin-4-yl-phenyl)-2,3,4,5-tetrahydro-1H-pyrido[4,3-b]indole] | 26% | 2% | 81% | 24% | 83% | 64% | 11% | 38%
Cc1ccc2c(c1)c1c(n2-c2ccccc2-c2ccc(F)cc2)CCN(C)C1 [Compound 10, 5-(4′-fluorobiphenyl-2-yl)-2,8-dimethyl-2,3,4,5-tetrahydro-1H-pyrido[4,3-b]indole] | 57% | 26% | 94% | 59% | 93% | 73% | 67% | 82%
Cc1ccc2c(c1)c1c(n2-c2cccs2)CCN(C)C1 [Compound 16, 2,8-dimethyl-5-thiophen-2-yl-2,3,4,5-tetrahydro-1H-pyrido[4,3-b]indole] | 74% | 49% | 89% | 7% | 94% | 62% | 17% | 86%
Cc1ccc2c(c1)c1c(n2-c2ccc3ncccc3c2)CCN(C)C1 [Compound 24, 2,8-dimethyl-5-quinolin-6-yl-2,3,4,5-tetrahydro-1H-pyrido[4,3-b]indole] | 12% | 45% | 66% |  | 72% | 25% |  | 10%
Cc1ccc2c(c1)c1c(n2-c2ccccc2N(C)C)CCN(C)C1 [Compound 6, [2-(2,8-dimethyl-1,2,3,4-tetrahydro-pyrido[4,3-b]indol-5-yl)-phenyl]-dimethyl-amine] | 28% | 58% | 90% |  | 91% | 49% |  | 99%
CN1CCc2c(c3cc(Cl)ccc3n2-c2cscc2-c2ccccc2)C1 [Compound 26] | 61% | 47% | 96% |  | 86% | 95% |  | 91%
Cc1ccc2c(c1)c1c(n2-c2cccc3cnccc23)CCN(C)C1 [Compound 9, 5-isoquinolin-5-yl-2,8-dimethyl-2,3,4,5-tetrahydro-1H-pyrido[4,3-b]indole] | 5% | 0% | 77% |  | 54% | 59% |  | 65%
Cc1ccc2c(c1)c1c(n2-c2cscc2-c2cccnc2)CCN(C)C1 [Compound 22, 2,8-dimethyl-5-(4-pyridin-3-yl-thiophen-3-yl)-2,3,4,5-tetrahydro-1H-pyrido[4,3-b]indole] | 14% | 39% | 80% |  | 75% | 91% |  | 85%
Cc1ccc2c(c1)c1c(n2-c2cscc2-c2ccncc2)CCN(C)C1 [Compound 20, 2,8-dimethyl-5-(4-pyridin-4-yl-thiophen-3-yl)-2,3,4,5-tetrahydro-1H-pyrido[4,3-b]indole] | 18% | 9% | 85% |  | 78% | 97% |  | 42%
Cc1ccc2c(c1)c1c(n2-c2cccc(N(C)C)c2)CCN(C)C1 [Compound 7, [3-(2,8-dimethyl-1,2,3,4-tetrahydro-pyrido[4,3-b]indol-5-yl)-phenyl]-dimethyl-amine] | 4% | 31% | 42% |  | 52% | 19% |  | 43%
